Experimental data: article PMC4490944 (Journal of immunology (Baltimore, Md. : 1950), 2015)

Experiments:
MHC II = conditions: as previously reported; cited from earlier work
[1] = target: HLA-DR1 (DR1) (DRA*0101/DRB1*010101) (Homo sapiens, UniProt P01903+P01911, A100R/D57E/F55L/F60I/F76Y/I96L/L162R/M171V/P40L/Q125E/R42F/V115G/Y59C); assay: Numerical modeling; assay type: binding; conditions: Scheme V

## Ac-PRFVKQNTLRLAT [HA]
MHC II
  intrinsic and DM-catalyzed dissociation half-life: ~ 100 hours
[1]; bound for same fit
  k-3 (values that could produce the same fits): less than 1×10^−4
  k-6 (values that could produce the same fits): less than 1×10^−4
  k-7 (values that could produce the same fits): less than 1×10^−4
[1]; best fit value, DM-MHC resolves into inactive MHC II in the absence of peptides, kept the same for HA and CLIP, 0.4 μM DR1, 0.4 μM DM
  k5: 0.36 min⁻¹
